Measurements from the NIST ThermoML archive (doi:10.1016/j.jct.2013.12.002).

Assay: osmotic coefficient (dimensionless); mn = molality of the nth substance listed, in mol/kg
Conditions: 323.15 K, 101 kPa, Liquid, Knauer K-7000 vapour pressure osmometer

CCCC[N+]1(C)CCCC1.N#CN=C=[N-] [1-butyl-1-methylpyrrolidinium dicyanamide] + CCC(C)O
Conditions	osmotic coefficient
m1 = 0.0878	0.793
m1 = 0.1149	0.755
m1 = 0.1863	0.705
m1 = 0.2981	0.641
m1 = 0.4092	0.621
m1 = 0.5397	0.591
m1 = 0.8291	0.58
m1 = 1.213	0.555
m1 = 1.611	0.556
m1 = 2.019	0.548
m1 = 2.4	0.539
m1 = 2.776	0.533
m1 = 3.307	0.523

CCCC[N+]1(C)CCCC1.N#CN=C=[N-] [1-butyl-1-methylpyrrolidinium dicyanamide] + CCCCCO
Conditions	osmotic coefficient
m1 = 0.0446	0.63
m1 = 0.0818	0.59
m1 = 0.1078	0.558
m1 = 0.1865	0.512
m1 = 0.299	0.491
m1 = 0.3928	0.477
m1 = 0.5108	0.467
m1 = 0.8086	0.453
m1 = 1.191	0.444
m1 = 1.598	0.435
m1 = 2.004	0.425
m1 = 2.406	0.417
m1 = 2.798	0.409
m1 = 3.063	0.404

CCCC[N+]1(C)CCCC1.N#CN=C=[N-] [1-butyl-1-methylpyrrolidinium dicyanamide] + CCCCO
Conditions	osmotic coefficient
m1 = 0.0577	0.734
m1 = 0.0761	0.68
m1 = 0.1089	0.665
m1 = 0.2006	0.624
m1 = 0.296	0.602
m1 = 0.4011	0.587
m1 = 0.4745	0.581
m1 = 0.8117	0.57
m1 = 1.214	0.551
m1 = 1.617	0.541
m1 = 2.033	0.532
m1 = 2.43	0.52
m1 = 2.845	0.516
m1 = 3.308	0.508

CCCC[N+]1(C)CCCC1.N#CN=C=[N-] [1-butyl-1-methylpyrrolidinium dicyanamide] + CC(C)O
Conditions	osmotic coefficient
m1 = 0.0709	0.942
m1 = 0.1087	0.878
m1 = 0.1972	0.827
m1 = 0.2934	0.778
m1 = 0.3976	0.75
m1 = 0.4909	0.722
m1 = 0.7769	0.685
m1 = 1.175	0.645
m1 = 1.595	0.631
m1 = 1.998	0.612
m1 = 2.419	0.608
m1 = 2.821	0.595
m1 = 3.296	0.59

CCCC[N+]1(C)CCCC1.N#CN=C=[N-] [1-butyl-1-methylpyrrolidinium dicyanamide] + CCCO
Conditions	osmotic coefficient
m1 = 0.0836	0.9
m1 = 0.119	0.858
m1 = 0.2054	0.8
m1 = 0.2962	0.743
m1 = 0.4029	0.71
m1 = 0.502	0.689
m1 = 0.7791	0.653
m1 = 1.182	0.614
m1 = 1.61	0.587
m1 = 2	0.576
m1 = 2.442	0.565
m1 = 2.865	0.56
